Experimental findings from patent US20160176855A1, “Novel Sterically Hindered Cyclic Amines” (CLARIANT INTERNATIONAL LTD, priority 2013, published 2016) are described below.

The data set is described as follows: Solubility in solvents. Format: physicochemical.

Turning to `CC1(C)CC(NC(=O)c2ccc(C(=O)NC3CC(C)(C)NC(C)(C)C3)o2)CC(C)(C)N1` [Example 2, N,N′-bis(2,2,6,6-tetramethyl-4-piperidinyl)-2,5-furandicarboxamide], the Solubility entry was “soluble” (in DMF); “soluble” (in ethanol); “insoluble” (in hexane); “soluble” (in methanol); “insoluble” (in water).
